Test results reported in patent US6372208B1, “Method of reducing an immune response to a recombinant virus” (The Trustees of the University of Pennsylvania, priority 1996, dated 2002).
Read-outs that look alike come from different tables or passages of the source.

Columns and labels:
[1] = test system: E1-deleted adenovirus (H5.010CMVlacZ, H5.010CBALP)
[2] = test system: recombinant adenoviruses H5.010CBALP and H5.010CMVlacZ; assay: Lung-directed adenovirus gene transfer and readministration, transgene expression by histochemistry (Example 2); assay type: in vivo, C57BL/6 mice; settings: lung, readministered day 28, read day 31
Procedure: Female C57BL/6 mice (6˜8 week old) were infected with suspensions of H5.010CBALP (1×10^9 pfu in 50 μl of PBS) via the trachea at day 0 and similarly with H5.010CMVlacZ at day 28. One group of such mice was used as a control. Another group of mice were acutely depleted of CD4^+ cells by i.p. injection of antibody to CD4^+ cells (GK1.5; ATCC No. TIB207, 1:10 dilution of ascites) at the time of the initial gene therapy (days −3, 0, and +3). A third group of mice was injected with IL-12 (1 μg intratracheal or 2 μg, i.p. injections) at the time of the first administration of virus (days 0 and +1). A fourth group of mice was injected with gamma interferon. (1 μg intratracheal or 2 μg, i.p. injections) at the time of the first administration of virus (days 0 and +1).
When mice were subsequently euthanized and necropsied at days 3, 28, or 31, lung tissues were prepared for cryosections, while bronchial alveolar lavage (BAL) and mediastinal lymph nodes (MLN) were harvested for immunological assays.
The lung tissues were evaluated for ALP expression at day 3 and day 28 by histochemical staining following the procedures of Yang I, cited above. β-galactosidase expression was assayed at day 31 by X-gal histochemical staining. The results described below were obtained from the alkaline phosphatase histochemical stains (magnification ×100) or β-galactosidase X-gal stains (magnification ×100).

[3] = test system: human Ad5 recombinant vector; assay: Neutralizing antibody to adenovirus in BAL (Hela cell lacZ transduction); assay type: in vivo, C57BL/6 mice; settings: day 28, versus control mice
Procedure: BAL samples obtained from animals 28 days after primary exposure to recombinant virus were evaluated for neutralizing antibodies to adenovirus and anti-adenovirus antibody isotypes as follows. The same four groups of C57BL/6 mice, i.e., control, CD4^+ depleted, IL-12 treated and IFN-γ treated, were infected with H5.010BALP. Neutralizing antibody was measured in serially-diluted BAL samples (100 μl) which were mixed with H5.010CBlacZ (1×10^6 pfu in 20 μl), incubated for 1 hour at 37° C., and applied to 80% confluent Hela cells in 96 well plates (2×10^4 cells per well). After 60 minutes of incubation at 37° C., 100 μl of DMEM containing 20% FBS was added to each well. Cells were fixed and stained for β-galactosidase expression the following day.
(§1) The results are shown graphically in FIGS. 1A through 1C, which summarize neutralizing antibody titer, and the relative amounts (OD405) of IgG and IgA present in BAL samples.

H5.010CBlacZ = assay: Adenovirus-specific IgG and IgA in BAL by ELISA; assay type: in vivo, C57BL/6 mice; settings: day 28, versus control mice
Procedure: Adenovirus-specific antibody isotype was determined in BAL by using an enzyme-linked immunosorbent assay (ELISA). Briefly, 96-well plates were coated with 100 μl of PBS containing 5×10^9 particles of H5.010CBlacZ for 18 hours at 4° C. The wells were washed 5 times with PBS. After blocking with 200 μl of 2% BSA in PBS, the plates were rinsed once with PBS and incubated with 1:10 diluted BAL samples for 90 minutes at 4° C. Thereafter, the wells were extensively washed and refilled with 100 μl of 1:1000 diluted ALP-conjugated anti-mouse IgG or IgA (Sigma). The plates were incubated, subsequently washed 5 times, and 100 μl of the substrate solution (p-nitrophenyl phosphate, PNPP) was added to each well. Substrate conversion was stopped by the addition of 50 μl of 0.1M EDTA, and reactions were read at 405 nm.
as §1

[4] = test system: recombinant adenoviruses H5.010CBALP and H5.010CMVlacZ; assay: Liver-directed adenovirus gene transfer and readministration (Example 3); assay type: in vivo, C57BL/6 mice; settings: liver, readministered day 28, read day 31
Procedure: Experiments substantially identical to those described in Example 2 above were conducted in which viral vectors were administered into the blood for introduction of the transgene into the liver (rather than intratracheal delivery into the lung).
Female C57BL/6 mice (6-8 weeks old) were injected with suspensions of H5.010CBALP (1×10^9 pfu in 50 μl of PBS) i.p. at day 0 and similarly with H5.010CMVlacZ at day 28. One group of such mice was used as a control. Another group of mice was acutely depleted of CD4^+ cells by i.p. injection of antibody to CD4^+ cells (GK1.5; ATCC No. TIB207, 1:10 dilution of ascites) at the time of the initial gene therapy (days −3, 0, and +3). A third group of mice was injected with IL-12 (2 μg, i.p. injections) at the time of the first administration of virus (days 0 and +1). A fourth group of mice was injected with gamma interferon (2 μg, i.p. injections) at the time of the first administration of virus (days 0 and +1) .
When mice were subsequently euthanized and necropsied at days 3, 28, or 31, liver tissues were prepared for cryosections according to the procedures used above for lung tissue in Example 2.
The cryosection results were substantially similar for liver-directed gene therapy according to this method as for the lung-directed therapy of Example 2 above. The results described below were obtained from the alkaline phosphatase histochemical stains (magnification ×100) or β-galactosidase X-gal stains (magnification ×100).

## O=P1(N(CCCl)CCCl)NCCCO1 (stereo not shown) [cyclophosphamide]
[1]; liver
  transgene expression: transgene expression was prolonged
[1]; liver, at higher doses
  formation of neutralizing antibody: formation of neutralizing antibody was prevented
  vector readministration: allowing successful vector readministration
[1]; liver, short course at the time of virus delivery
  CD4 and CD8 T helper cell activation to adenovirus capsid protein: successfully interrupt both CD4 and CD8 T helper cell activation
[1]; lung
  formation of neutralizing antibodies: prevented formation of neutralizing antibodies at all doses
  transgene expression: stabilized transgene expression at high dose

## gamma interferon [IFN-γ]
[2]
  gene transfer upon second administration of virus (lacZ): efficient gene transfer was accomplished upon a second administration of virus
[3]
  neutralizing antibody in BAL: decreased as compared to the control animals not treated with cytokine, but not to the extent obtained with those treated with IL-12
H5.010CBlacZ
  virus specific IgA in BAL: decreased as compared to the control animals not treated with cytokine, but not to the extent obtained with those treated with IL-12
[4]
  gene transfer upon second administration of virus (lacZ): efficient gene transfer was accomplished upon a second administration of virus
